One assay concerns human AML. Briefly: in vivo mouse model of human AML (tumour growth). To be noted: oral administration, procedure of Example 236, FIG. 1.
The next assay has as its target T1, MLLT1 (Homo sapiens, UniProt Q03111).
T1 construct: host or cells: MV4-11
T1 sequence (Q03111 1-559): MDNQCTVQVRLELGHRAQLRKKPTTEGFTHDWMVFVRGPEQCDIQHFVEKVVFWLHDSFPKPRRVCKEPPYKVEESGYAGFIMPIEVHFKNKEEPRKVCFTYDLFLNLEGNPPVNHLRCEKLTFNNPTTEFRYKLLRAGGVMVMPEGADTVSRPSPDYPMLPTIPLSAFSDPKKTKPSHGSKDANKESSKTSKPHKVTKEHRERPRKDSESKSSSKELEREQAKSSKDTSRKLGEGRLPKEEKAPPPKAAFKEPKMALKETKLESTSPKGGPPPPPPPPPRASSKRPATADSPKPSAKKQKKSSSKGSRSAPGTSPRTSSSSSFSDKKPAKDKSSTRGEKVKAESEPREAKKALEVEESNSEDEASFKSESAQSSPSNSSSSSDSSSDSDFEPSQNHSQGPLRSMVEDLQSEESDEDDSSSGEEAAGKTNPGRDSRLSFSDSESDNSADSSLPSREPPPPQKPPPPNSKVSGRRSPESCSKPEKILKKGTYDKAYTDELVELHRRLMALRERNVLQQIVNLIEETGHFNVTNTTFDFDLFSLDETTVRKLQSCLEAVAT
Briefly: MLLT1 degradation assay in MV4-11 cells (JESS chemiluminescent detection), three concentrations, 24 h. Format: cell-based. To be noted: with respect to DMSO control. In short, it runs like this:
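MV4-11 cells treated 24 h at 37° C, 5% CO2 with 1000, 100 and 10 nM compound (0.1% DMSO final). MLLT1 quantified by automated capillary chemiluminescent immunodetection; band peak area expressed as % degradation relative to DMSO control.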

A further assay addresses T2, MLLT3 (Mus musculus, UniProt A2AM29).
T2 construct: host or cells: NIH/3T3
T2 sequence (A2AM29 1-569): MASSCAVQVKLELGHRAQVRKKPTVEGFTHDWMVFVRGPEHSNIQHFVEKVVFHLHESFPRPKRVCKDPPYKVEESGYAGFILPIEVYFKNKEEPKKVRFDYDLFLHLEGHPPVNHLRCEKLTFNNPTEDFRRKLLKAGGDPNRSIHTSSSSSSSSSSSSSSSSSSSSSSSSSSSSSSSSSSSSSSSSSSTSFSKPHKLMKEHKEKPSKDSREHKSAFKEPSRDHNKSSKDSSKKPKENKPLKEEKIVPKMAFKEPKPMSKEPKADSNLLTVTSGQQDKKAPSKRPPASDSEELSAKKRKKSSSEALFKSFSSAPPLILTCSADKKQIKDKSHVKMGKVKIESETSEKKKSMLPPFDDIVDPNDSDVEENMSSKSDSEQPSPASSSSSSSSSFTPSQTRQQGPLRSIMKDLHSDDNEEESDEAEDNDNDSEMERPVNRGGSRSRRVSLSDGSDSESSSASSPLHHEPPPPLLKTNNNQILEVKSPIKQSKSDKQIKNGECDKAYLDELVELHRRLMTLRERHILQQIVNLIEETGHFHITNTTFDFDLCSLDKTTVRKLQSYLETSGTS
Briefly: MLLT3 degradation assay in NIH/3T3 cells (JESS), dose response, 5 h. Format: cell-based. The method, then: MLLT3 degradation efficacy of compounds was tested in an automated chemiluminescent detection system (JESS, Cat #004-650). NIH/3T3 (#CRL-1658, ATCC) were seeded at a density of 0.5 million cells/well in a cell culture treated 6-well cell culture plate in 2 mL of complete medium (DMEM+10% FBS+IX Penicillin-Streptomycin) and incubated at 37° C., 5% CO2. The next day, 10 mM DMSO stocks were prepared, and cells were treated with eight concentrations of test compounds, starting from 100 nM, 5-fold dilution, at a final DMSO concentration of 0.1% and incubated for 5 h at 37° C., 5% CO2. Post incubation, cells were washed with HBSS and lysed in 70 μL of RIPA buffer supplemented with Protease inhibitors (sc-24948; Santa Cruz). Later, protein estimation was done using BCA protein assay kit (23228; Pierce). 4 μg protein lysate (4 μL of 1 μg/μL lysate) was loaded into each well of the JESS cartridge (SM-W004; Bio-techne) and the JESS run was performed using 1:200 dilution of anti-mouse MLLT3 antibody (#47577; CST) and 1:800 dilution of anti-human GAPDH antibody (2118; Cell signaling technology) with anti-rabbit secondary detection module (DM-001; Bio-Techne). Post run, data was analysed using “Compass for SW” software for chemiluminescent detection. Peak fit was done using “dropped lines” method. […]

A further assay deals with MV4-11 cells. Briefly: MV4-11 cellular proliferative assay, Assay Format A (CellTiter-Glo, 120 hours). Format: cell-based. To be noted: Homo sapiens. In short, it runs like this:
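Over 120 h, MV4-11 cells seeded at 50 cells/well in IMDM/10% FBS were exposed to compound (10 semi-log dilutions, 30 μM top). Viability was read by CellTiter-Glo luminescence. Signals were normalised to DMSO and reference-compound wells, and AC50 came from a Hill fit.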

Where only a bound is given, the exact number is not on record here.

For `CN1CCC[C@@H]1c1cc2cnc(NC(=O)c3ccc(CCCC#Cc4cccc5c4CN(C4CCC(=O)NC4=O)C5=O)cc3)cc2[nH]1` (stereo partly drawn) [Example 55, 4-(5-(2-(2,6-dioxopiperidin-3-yl)-1-oxoisoindolin-4-yl)pent-4-yn-1-yl)-N-(2-((R)-1-methylpyrrolidin-2-yl)-1H-pyrrolo[3,2-c]pyridin-6-yl)benzamide], the tumour growth entry with human AML is “reduction in tumour growth”. In addition, the “MLLT1% Degradation @ 0.01 μM” value on MLLT1 (0.01 μM) is “A (Category A: A ≥ 75% degradation)”. Besides, at MLLT1 (0.1 μM), the “MLLT1% Degradation @ 0.1 μM” value was “A (Category A: A ≥ 75% degradation)”. Besides, the “MLLT1% Degradation @ 1 μM” value on MLLT1 (1 μM) was “A (Category A: A ≥ 75% degradation)”. This molecule also registered a DC50 on MLLT3 of 0.8 nM. On MLLT3 (NIH3T3, maximum % degradation observed), this molecule returned a Dmax of 92%. Further, the IC50 in the assay on MV4-11 cells was ≤ 100 nM.

These data come from patent US20260191968A1, “PROTAC DEGRADERS OF MLLT1 AND/OR MLLT3” (DARK BLUE THERAPEUTICS LTD, priority 2024, published 2026).
